Values quoted from earlier work in US8329435B2, “Methods for improved uptake of biological molecules” (American Symbolic, LLC, priority 2007, dated 2012).

Settings: unmodified glutathione

- half-life of glutathione in the blood (blood): around 120 seconds
- half-life in the blood stream (blood stream): about a minute and a half
Structure (SMILES): N[C@@H](CCC(=O)N[C@@H](CS)C(=O)NCC(=O)O)C(=O)O [glutathione]
